Source: BindingDB's records for patent US20240246935 (Plexium, Inc., 2024)

These compounds were tested against Protein cereblon (Homo sapiens, UniProt Q96SW2) (assay: Cereblon (CRBN) Target Engagement).
Experimental: Cereblon target engagement was monitored by Bioluminescence Resonance Energy Transfer (BRET) in transfected HEK-293T cells using the NanoBRET TE Intracellular E3 Ligase Assay (Promega). Briefly, 384-well plates (white opaque plates, Corning 3574, low binding surface) were seeded with transfected HEK-293T cells (38 uL/well). 2 uL of 10 uM CRBN tracer (diluted 1:5 in Tracer Dilution Buffer) was added to each well. Plates were centrifuged at 320 g for 1 min at room temperature. Test compounds were added in a 11-point dilution series (typically […]) using a TECAN D300e Digital Dispenser. Plates were shaken for 2 minutes on a microplate shaker to mix compounds. Plates were centrifuged at 320 g for 1 min at room temperature, and subsequently incubated for 2 hours at 37 C.After incubation, plates were allowed to cool to room temperature for 15 minutes. 20 uL of 3 Complete NanoBRET Nano-Glo Substrate plus Inhibitor Solution (Promega, 1:166 Substrate and 1:500 dilution of Extracellular NanoLuc Inhibitor diluted in Opti-MEM) were added to each well. Plates were incubated with shaking at room temperature for 3 minutes covered with foil. Plates were read on a CLARIOstar microplate reader (BMG LabTech), measuring at 450 nm (donor emission) and 610 nm (acceptor emission). The IC50 values were determined by regression to best fit four-parameter logistic curves using GraphPad Prism.

Protein cereblon, sequence (Q96SW2 whole entry): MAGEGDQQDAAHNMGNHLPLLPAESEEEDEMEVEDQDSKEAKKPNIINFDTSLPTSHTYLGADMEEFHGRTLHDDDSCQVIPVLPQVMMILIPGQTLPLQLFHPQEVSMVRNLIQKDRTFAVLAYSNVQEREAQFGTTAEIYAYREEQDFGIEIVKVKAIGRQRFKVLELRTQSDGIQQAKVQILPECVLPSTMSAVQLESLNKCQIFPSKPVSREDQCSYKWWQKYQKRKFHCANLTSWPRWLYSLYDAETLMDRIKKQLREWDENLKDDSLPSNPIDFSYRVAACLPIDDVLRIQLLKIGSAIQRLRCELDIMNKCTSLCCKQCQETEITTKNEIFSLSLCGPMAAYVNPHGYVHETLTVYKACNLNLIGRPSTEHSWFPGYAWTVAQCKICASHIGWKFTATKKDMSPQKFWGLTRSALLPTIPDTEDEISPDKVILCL

`O=C1CCC(N2Cc3cc(O[C@H]4CCC[C@@H]4N4CC(c5ccc(F)cc5Cl)C4)ccc3C2=O)C(=O)N1` (some centres not stated) [US20240246935, Example 104] and `O=C1CCC(N2Cc3cc(O[C@H]4CCCC[C@@H]4N4CC(c5ccc(F)cc5Cl)C4)ccc3C2=O)C(=O)N1` (some centres not stated) [US20240246935, Example 103] are within 1.5-fold of each other in EC50: 0.018 µM for the first, 0.015 µM for the second.

`O=C1NC(=O)C2(N3Cc4cc(O[C@H]5CCC[C@@H]5N5CC(c6ccc(F)cc6Cl)C5)ccc4C3=O)CC1C2` [US20240246935, Example 86] and `O=C1NC(=O)C2(N3Cc4cc(O[C@H]5CCC[C@@H]5N5CC(c6cccc(F)c6)C5)ccc4C3=O)CC1C2` [US20240246935, Example 87] cannot be ordered by EC50: over 10 µM for the first, over 10 µM for the second.

First: O=C1NC(=O)C2(N3Cc4cc(O[C@H]5CCCC[C@@H]5N5CC(c6cccc(F)c6)C5)ccc4C3=O)CC1C2 [US20240246935, Example 89]
Second: O=C1NC(=O)C2(N3Cc4cc(O[C@H]5CCC[C@@H]5N5CCC(c6ccccc6)C5)ccc4C3=O)CC1C2 (some centres not stated) [US20240246935, Example 107]
The EC50 of the first is lower: 6.81 µM for the first, over 10 µM for the second. The first is the more potent here.

`O=C1CCC(N2Cc3cc(O[C@H]4CCC[C@@H]4N4CC(c5cccc(F)c5)C4)ccc3C2=O)C(=O)N1` (some centres not stated) [US20240246935, Example 88] gave an EC50 of 0.0302 µM.
